# PMC7792806, “Development of Second Generation Activity-Based Chemical Probes for Sirtuins” (Molecules, 2020)
# Tests used:
# SIRT5 = target: T1, SIRT5 (Homo sapiens, UniProt Q9NXA8); test: In-cell labeling of SIRT5 with probe 2B, cellular imaging; format: cell-based; details: 1 mM NR for 6 h, then 50 μM probe 2B, 15 min irradiation at 365 nm; compared with control cells
# T1 construct: endogenous in cells; host or cells: HEK293
# T1 sequence (Q9NXA8 37-310): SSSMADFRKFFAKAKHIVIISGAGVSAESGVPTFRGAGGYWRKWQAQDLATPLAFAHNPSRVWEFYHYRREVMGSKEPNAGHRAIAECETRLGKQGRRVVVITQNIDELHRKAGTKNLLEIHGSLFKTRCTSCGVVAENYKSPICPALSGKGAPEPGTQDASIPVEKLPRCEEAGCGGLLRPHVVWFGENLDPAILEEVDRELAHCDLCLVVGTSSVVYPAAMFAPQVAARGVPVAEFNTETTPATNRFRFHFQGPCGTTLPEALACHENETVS
# Description: HEK293 cells overexpressing SIRT5 were subjected to a treatment known to increase the cellular NAD^+ level. […] Then, the cells were incubated with 50 μM probe 2B and irradiated at 365 nm for 15 min on ice. Subsequently, the cells were treated with freshly prepared “click” staining mix as described in “Materials and Methods”. After the “click” reaction, cells were incubated with anti-SIRT5 antibody before the images were acquired.
# Cells were seeded in 35 mm glass-bottom dishes (MatTek, Ashland, MA, USA) and grew until 70 to 80% confluence. Then, the cells were incubated in the presence or absence of 1 mM NR for 6 h before the medium was discarded. The cells were gently rinsed with fresh growth medium three times. Subsequently, the cells were incubated with 50 μM probe 2B for 1 h before the culture dishes were placed on ice. The cells were irradiated at 365 nm in cold room for 15 min followed by fixation with 4% paraformaldehyde and permeabilization with 0.2% Triton X-100 in PBS. Then, the cells were treated with freshly prepared “click” staining mix (10 μM TAMRA-azide, 1 mM CuSO4 and 1 mM TBTA in 2 mL of deionized water), followed by the addition of 2 mM TCEP. […]
# Fluorescence microscopy was carried out on a Leica TCS SP5 confocal microscope (Leica Microsystems, Mannheim, Germany). […] Images were acquired and processed using Leica Application Suite Advanced Fluorescence (LAS AF) software.
# [1] = test system: HEK293 cells overexpressing SIRT5; test: Cellular NAD+ measurement, NAD+ cycling assay; format: cell-based, human; details: 1 mM for 6 h
# Description: HEK293 cells overexpressing SIRT5 were subjected to a treatment known to increase the cellular NAD^+ level.
# To the cell pellet was added 30 μL of ice-cold 7% perchloric acid; then, the sample was vortexed for 30 s and then sonicated on ice for 5 min. The vortex–sonication cycle was repeated three times. Then, the sample was centrifuged for 3 min at room temperature. Clear supernatant was taken out and neutralized to pH 7 with 3 M NaOH and 1 M phosphate buffer (pH 9). NAD^+ level was then measured using NAD^+ cycling assay as described previously [14].
# [2] = test system: SIRT1, SIRT2, SIRT3, and SIRT6; test: Labeling of individual recombinant sirtuins, in-gel fluorescence; format: biochemical, human; details: Figure S1
# Description: (§1) The improved inhibitory effects of the 2nd generation ABPs prompted us to evaluate the labeling efficiency of these new probes. We first compared the abilities of benzophenone-based probe 1A and diazirine-based probe 2A to label recombinant SIRT2. The enzyme was incubated with NAD^+ and the probe, and then irradiated at 365 nm for 1 h. Subsequently, the sample was conjugated to TAMRA-azide via Cu(I)-catalyzed “click” reaction. The sample was resolved by SDS-PAGE and detected by in-gel fluorescence scanning.
# A typical labeling experiment was performed as follows: in a 0.7 mL Eppendorf tube, purified recombinant human sirtuin (10 μM) was incubated with NAD^+ (500 μM) and activity-based probe at 37 °C for 10 min. The sample was transferred to a clear-bottom 96-well plate, placed on ice, and irradiated at 365 nm with a UV-lamp in a cold room. Subsequently, ingredients of the “click-chemistry” including azide-fluor 545, CuSO4, reducing agent (tris(2-carboxyethyl)phosphine, TCEP) and stabilizing agent (tris[(1-benzyl-1H-1,2,3-triazol-4-yl)methyl]amine, TBTA) were added, and the sample was gently agitated at 250 rpm on a microshaker at room temperature for 30 min. Then, the sample was resolved by SDS-PAGE. […] Then, destained gel was analyzed with in-gel fluorescence scanning using a Biorad ChemiDoc MP imager (excitation 532 nm, 580 nm cut-off filter and 30 nm band-pass). […]
# SIRT3 = target: T2, SIRT3 (Homo sapiens, UniProt Q9NTG7); test: Sirtuin inhibition assay (HPLC), SIRT3; format: biochemical; details: ratio of IC50s
# T2 construct: SIRT3 (102-399); made in house
# T2 sequence (Q9NTG7 102-399): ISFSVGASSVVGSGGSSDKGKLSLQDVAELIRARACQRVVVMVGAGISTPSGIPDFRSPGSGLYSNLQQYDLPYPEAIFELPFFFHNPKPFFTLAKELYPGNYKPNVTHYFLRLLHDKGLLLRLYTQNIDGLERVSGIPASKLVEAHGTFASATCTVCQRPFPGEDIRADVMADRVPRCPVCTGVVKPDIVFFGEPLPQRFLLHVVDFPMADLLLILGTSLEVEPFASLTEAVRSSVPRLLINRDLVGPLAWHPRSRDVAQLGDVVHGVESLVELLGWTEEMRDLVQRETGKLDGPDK
# Description: (§2) Plasmids of SIRT1 (full length), SIRT2 (38-356), SIRT3 (102-399), and SIRT5 (34-302) were generous gifts from Dr. Hening Lin (Cornell University, Ithaca, NY, USA). SIRT6 was a gift from Cheryl Arrowsmith (Addgene plasmid #28271). The proteins were expressed and purified according to previously published protocols. The identity of the protein was confirmed by tryptic digestion followed by LC-MS/MS analysis performed at the Vermont Genetic Network (VGN) Proteomics Facility. Protein concentrations were determined by Bradford assay (Thermo Fisher Scientific, Rockford, IL, USA).
# (§3) A typical reaction contained 500 μM NAD^+ and 500 μM peptide substrate (H3K9Ac for SIRT2, SIRT3 and SIRT6, p53K382Ac for SIRT1 and SIRT5) of varying concentrations of a small molecule probe in 100 mM phosphate buffer pH 7.5. The reactions were initiated by the addition of 10 μM of sirtuin and were incubated at 37 °C before being quenched by 8 μL of 10% TFA. The incubation time was controlled so that the conversion of substrate was less than 15%. The samples were then injected on an HPLC fitted to a Macherey-Nagel Nucleosil C18 column. NAD^+, NAM and AADPR (acetyl-ADP-ribose) peaks were resolved using a gradient of 0 to 20% methanol in 20 mM ammonium acetate. Chromatograms were analyzed at 260 nm. Reactions were quantified by integrating areas of peaks corresponding to NAD^+ and AADPR. Rates were plotted as a function of small molecule probe concentration, and points were fitted to the following equation:ν(%) = ν0(%) − [ν0(%)(10^x)/(10^x + IC50)](1) where ν(%) represents the turnover rate expressed as percent enzymatic activity remaining, and ν0(%) represents the uninhibited turnover rate expressed as an enzymatic activity of 100%. The variable x represents the log[probe] in nanomolar. IC50 values were derived from this equation.
# SIRT1 [3] = target: T3, SIRT1 (Homo sapiens, UniProt Q96EB6); test: Sirtuin inhibition assay (HPLC), SIRT1; format: biochemical; details: ratio of IC50s
# T3 construct: Plasmids of SIRT1 (full length); made in house
# T3 sequence (Q96EB6 1-747): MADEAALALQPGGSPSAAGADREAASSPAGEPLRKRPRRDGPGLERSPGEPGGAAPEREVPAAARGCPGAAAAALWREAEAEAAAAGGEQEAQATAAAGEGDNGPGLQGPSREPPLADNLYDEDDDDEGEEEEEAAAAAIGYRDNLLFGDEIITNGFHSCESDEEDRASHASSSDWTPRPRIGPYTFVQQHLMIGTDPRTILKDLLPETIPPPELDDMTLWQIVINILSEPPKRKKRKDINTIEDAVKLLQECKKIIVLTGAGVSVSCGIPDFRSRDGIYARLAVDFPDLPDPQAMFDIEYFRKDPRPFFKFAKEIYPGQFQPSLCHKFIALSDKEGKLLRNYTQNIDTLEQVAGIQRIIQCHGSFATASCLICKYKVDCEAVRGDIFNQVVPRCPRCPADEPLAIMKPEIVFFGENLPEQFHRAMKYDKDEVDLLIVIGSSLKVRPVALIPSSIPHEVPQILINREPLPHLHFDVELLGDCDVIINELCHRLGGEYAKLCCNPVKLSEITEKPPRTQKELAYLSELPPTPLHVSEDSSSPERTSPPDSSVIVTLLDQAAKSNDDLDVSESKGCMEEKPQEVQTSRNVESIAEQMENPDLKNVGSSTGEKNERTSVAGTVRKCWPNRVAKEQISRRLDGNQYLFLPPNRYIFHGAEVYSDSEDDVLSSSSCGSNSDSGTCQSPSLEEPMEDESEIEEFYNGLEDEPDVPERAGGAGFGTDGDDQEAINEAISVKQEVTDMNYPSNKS
# Description: as §2, §3
# SIRT1 [4] = test: Acetylation level of p53 lysine 382 in cells; format: cell-based; details: Figure S3
# SIRT2 = target: T4, SIRT2 (Homo sapiens, UniProt Q8IXJ6); test: Photoaffinity labeling of recombinant SIRT2, in-gel fluorescence; format: biochemical
# T4 construct: SIRT2 (38-356); made in house
# T4 sequence (Q8IXJ6 38-356): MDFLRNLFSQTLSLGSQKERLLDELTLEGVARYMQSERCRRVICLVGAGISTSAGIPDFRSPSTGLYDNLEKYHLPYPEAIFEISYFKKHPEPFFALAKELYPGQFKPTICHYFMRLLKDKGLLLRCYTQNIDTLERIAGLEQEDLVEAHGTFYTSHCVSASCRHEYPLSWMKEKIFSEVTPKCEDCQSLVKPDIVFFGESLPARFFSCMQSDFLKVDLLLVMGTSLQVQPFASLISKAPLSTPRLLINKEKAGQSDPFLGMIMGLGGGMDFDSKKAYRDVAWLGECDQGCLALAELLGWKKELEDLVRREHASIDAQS
# Description: as §1
# Figure 3 Comparison of labeling efficiencies of probes 1A and 2A. (A) Concentration-dependent labeling of SIRT2. SIRT2 (10 μM) was incubated with 500 μM NAD^+ and indicated concentrations of probe 1A or 2A in 100 mM phosphate buffer pH 7.5. The samples were incubated at 37 °C for 10 min, subjected to UV irradiation for 1 h, and then “click” conjugated to TAMRA-azide as described in “Materials and Methods”; (B) and (C) Time-dependent labeling of SIRT2 by probe 2A. The labeling reached plateau within 20 min.
# A typical labeling experiment was performed as follows: in a 0.7 mL Eppendorf tube, purified recombinant human sirtuin (10 μM) was incubated with NAD^+ (500 μM) and activity-based probe at 37 °C for 10 min. […] Then, destained gel was analyzed with in-gel fluorescence scanning using a Biorad ChemiDoc MP imager (excitation 532 nm, 580 nm cut-off filter and 30 nm band-pass). […]
SMILES,labeling intensity of SIRT5 by probe 2B in cells (SIRT5),increase of cellular NAD+ concentration [1],labeling of recombinant sirtuins [2],increased inhibition of SIRT3 compared with probe 1A (SIRT3),increased inhibition of SIRT1 compared with probe 1A (SIRT1 [3]),"acetylation level of p53 lysine 382, combined with TSA (SIRT1 [4])","labeling intensity of SIRT2 (SIRT2; 10 μM SIRT2, 500 μM NAD+, 1 h irradiation at 365 nm, all concentrations examined)",irradiation time to saturation of SIRT2 labeling (SIRT2; UV irradiation at 365 nm)
"NC(=O)c1ccc[n+]([C@@H]2O[C@H](CO)[C@@H](O)[C@H]2O)c1 [NR, Nicotinamide riboside]",increased labeling intensity,170%,,,,,,
C#CCCCC1(CCC(=O)N[C@@H](CCCCNC(C)=S)C(=O)N[C@@H](C)C(=O)N[C@@H](C)C(=O)OC)N=N1 [Probe 2A],,,"labeled SIRT1, SIRT2, SIRT3, and SIRT6 to different extents in dose-dependent manners",2 fold,3 fold,increase the acetylation level of p53 lysine 382,more intensively than probe 1A,≤ 20 min
